Read-outs that look alike come from different tables or passages of the source.
What was measured:
[1] = Phase behaviour of FS with HM-EHEC; assay type: physicochemical; details: 1 wt % HM-EHEC, 10 mM Li2SO4, pH 5
From the text: The top layer had low viscosity (similar to that of water) and was mildly cloudy; the bottom layer was yellow and highly viscous, almost gel-like. As the concentration of reduced FS increased, the top layer became more cloudy and the bottom layer became less viscous (up to 5 mmolal). As the concentration of reduced FS was decreased (down to 0.1 mmolal), the top layer cleared and the bottom layer became less viscous. […] The solutions made with oxidized FS were faintly blue and cloudy as the concentration increased (from 0.1 to 0.5 mmolal).

COS-7 cells [2] = test system: COS-7 cells
Description: Preparation of lipoplexes for Transfection Assays.
Cells were then incubated for 48 hours and cell morphology and relative levels of EGFP expression were characterized using phase contrast and fluorescence microscopy.
For these experiments, cells were incubated with lipoplexes for four hours in serum-free medium, followed by incubation in fresh serum-containing medium (see Materials and Methods Section for complete description of transfection procedures).

COS-7 cells [3] = details: for concentrations at which maximum gene expression is observed: medium with 10% fetal bovine serum
[4] = Dynamic light scattering of surfactant micelles (no polymer); assay type: physicochemical; details: 0.1M Li2SO4, no polymer, […]° C., center-of-mass diffusion of spheres (200 mmolal DTAB; 25 mmolal reduced FTMA)
[5] = assay type: physicochemical; details: for cloud point: 0.1 wt % EHEC, 0.1M Li2SO4
Description: Surfactant-ethyl(hydroxylethyl) cellulose (EHEC) interactions were characterized by observing the clouding temperature of solutions of EHEC containing various concentrations of surfactant.
Sample Preparation. Three samples of each solution were prepared to assess reproducibility. […] The EHEC solution was filtered through 0.22 μm GV Millipore filter, placed under vacuum for 30-45 minutes, then bubbled with argon for another 30-45 minutes. This deaeration procedure was performed for all solutions, including solutions of DTAB.
The solutions of polymer, salt, and surfactant were then mixed to form 0.1 wt % EHEC, 0.1M Li2SO4, and the desired concentration of surfactant. These solutions were deaerated three times and bubbled with argon inside airtight containers. These solutions were stored at 25° C. and measured after 3 hours and 1 day.
They were simply filtered, mixed to the desired concentrations, and stored for one day before measurements of cloud points and light scattering were performed.
Cloud Point Measurements. Solution of EHEC and surfactant were immersed in a temperature bath controlled to within 0.1° C. The temperature was increased by 1° C. every 10 minutes and the solutions were visually inspected for clouding. […] The values reported in this study are based on clouding points measured upon increasing the temperature of the solutions.

[6] = Critical micelle concentration (CMC) in 0.1M Li2SO4; assay type: physicochemical
COS-7 cells [7] = assay: Live/dead cytotoxicity assay of lipoplexes
pGFP = assay: QLS hydrodynamic size of BFDMA/DNA complexes; assay type: physicochemical; details: 10 μM BFDMA, 2.4 μg/ml DNA, Opti-MEM, 25° C.
Description: (§1) 1) A solution of 100 μM reduced BFDMA was prepared by dissolving BFDMA (solid) in water.
(§2) 2) A solution of 100 μM oxidized BFDMA was prepared as follows: First, a […] reduced BFDMA solution was prepared by dissolving BFDMA (solid) in 1 mM Li2SO4 aqueous solution, and then the solution was oxidized electrochemically. The resultant oxidized BFDMA solution was diluted with water to give a solution of 100 μM oxidized BFDMA.
1) 150 μl of 100 μM reduced/oxidized BFDMA solution was diluted with 150 μl of 24 μg/ml pGFP aqueous solution, and the solution was allowed to stand for 20 min at room temperature. 1.2 ml of Opti-MEM was added to the solution to yield a final BFDMA concentration of 10 μM and a final DNA concentration of 2.4 μg/ml. QLS measurements were made at 25° C. immediately after the samples were prepared.

[8] = QLS hydrodynamic size of BFDMA solutions without DNA; assay type: physicochemical; details: 10 μM BFDMA, Opti-MEM, 25° C.
Description: as §1, §2
150 μl of 100 μM reduced/oxidized BFDMA solution was diluted with 150 μl of water, followed by the addition of 1.2 ml of Opti-MEM. The final BFDMA concentration was 10 μM. QLS measurements were made at 25° C. immediately after the samples were prepared.

pEGFP-N1 = details: serum-free cell culture medium;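 further: dynamic light scattering of lipoplexes formed from BFDMA and pEGFP-N1 plasmid (2.4 µg/ml), scattering angles 30° to 110°, autocorrelation functions analysed with CONTIN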
[9] = [BFDMA] 6 μM, listed as Ox. BFDMA
[10] = [BFDMA] 8 μM, listed as Ox. BFDMA
[11] = [BFDMA] 10 μM, listed as Ox. BFDMA
[12] = [BFDMA] 20 μM, listed as Ox. BFDMA
[13] = [BFDMA] 60 μM, listed as Ox. BFDMA
[14] = [BFDMA] 6 μM, listed as Red. BFDMA
[15] = [BFDMA] 8 μM, listed as Red. BFDMA
[16] = [BFDMA] 10 μM, listed as Red. BFDMA
[17] = [BFDMA] 20 μM, listed as Red. BFDMA
[18] = [BFDMA] 60 μM, listed as Red. BFDMA

11-ferrocenylundecylsulfonate [oxidized FS]
liquid-liquid phase separation [1]: did not form two coexisting liquid phases

11-ferrocenylundecylsulfonate [reduced FS]
liquid-liquid phase separation [1]: caused a liquid-liquid phase separation

C[N+](C)(CCCCCCCCCCC[c-]1cccc1)CCCCCCCCCCC[c-]1cccc1.[Br-].[Fe+2].[Fe+2].c1cc[cH-]c1.c1cc[cH-]c1 [BFDMA, bis(11-ferrocenylundecyl)dimethylammonium bromide]
transfection activity following electrochemical cycling (EGFP expression) (COS-7 cells [2]; oxidized at 500 mV, then reduced at −44 mV prior to contact with DNA): retains transfection activity | magnitude of gene expression in presence of serum relative to serum-free medium (COS-7 cells [3]; four hours exposure, 10% fetal bovine serum): approximately one order of magnitude lower

CCCCCCCCCCCC[N+](C)(C)C.[Br-] [DTAB, dodecyltrimethyl ammonium bromide]
hydrodynamic diameter of micelles [4]: 4 nm | clouding temperature compared to solutions free of DTAB ([5]; 1 mM DTAB): not measurably lowered | lowering of clouding temperature of EHEC solutions ([5]; 5 mmolal DTAB (from 32° C. to 26° C.)): 6 °C | cloud point ([5]; 5 mmolal DTAB): 26-27 °C | cloud point ([5]; DTAB concentrations near its CMC (10 mM)): 14±0.3 °C | CMC [6]: 10 mM

O=S(=O)([O-])[O-].[Li+].[Li+] [Li2SO4]
clouding temperature ([5]; 0.1% (w/w) EHEC, 1M Li2SO4, pH 2.5): less than 6 °C

C[N+](C)(CCCCCCCCCCC[c-]1cccc1)CCCCCCCCCCC[c-]1cccc1.[Br-].[Fe+2].[Fe+2].c1cc[cH-]c1.c1cc[cH-]c1 [oxidized BFDMA, bis(11-ferrocenylundecyl)dimethylammonium bromide]
EGFP expression (cell transfection) (COS-7 cells [2]; 20 μM lipid, 4 h exposure in serum-free medium, 48 h): relatively high levels | EGFP gene expression, generally (COS-7 cells [2]; 2-40 μM lipid, 4 h exposure in serum-free medium, 48 h): very low levels | cytotoxicity relative to DNA alone or commercial controls (COS-7 cells [7]; 2 hours exposure, any concentration evaluated (2 μM to 60 μM), OptiMEM): not cytotoxic | toxicity (COS-7 cells [7]; 4 hours exposure, e.g. 40 μM and 60 μM): increases at higher concentrations | levels of gene expression versus reduced BFDMA (COS-7 cells [3]; 2 hours exposure, serum-free): dramatically lower | luciferase expression (COS-7 cells [3]; 12 hour exposure, serum-free, 20 μM): in excess of expression mediated by reduced BFDMA | concentrations at which maximum gene expression is observed (COS-7 cells [3]; four hours exposure): 40 µM and 60 µM | hydrodynamic size of aggregates w/ DNA (pGFP; time 0 min, listed as ox): 209.6 nm | hydrodynamic size of aggregates w/ DNA (pGFP; time 120 min, listed as ox): 221.4 nm | hydrodynamic size of aggregates w/ DNA (pGFP; time 240 min, listed as ox): 297.2 nm | hydrodynamic size of aggregates w/o DNA ([8]; time 0 min, listed as ox): 363.4 nm | hydrodynamic size of aggregates w/o DNA ([8]; time 120 min, listed as ox): 496 nm | hydrodynamic size of aggregates w/o DNA ([8]; time 240 min, listed as ox): 511 nm | Number-Avg Diameter (pEGFP-N1; [BFDMA] 2 μM, 600 ng DNA, listed as Ox. BFDMA): 89 (±40) nm | Intensity-Avg Diameter (pEGFP-N1; [BFDMA] 2 μM, listed as Ox. BFDMA): 196 (±86) nm | Intensity-Avg Diameter (pEGFP-N1; [9]): 217 (±58) nm | Number-Avg Diameter (pEGFP-N1; [9]): 64 (±25) nm | Intensity-Avg Diameter (pEGFP-N1; [10]): 228 (±100) nm | Number-Avg Diameter (pEGFP-N1; [10]): 86 (±37) nm | Intensity-Avg Diameter (pEGFP-N1; [11]): 266 (±212) nm | Number-Avg Diameter (pEGFP-N1; [11]): 110 (±55) nm | Number-Avg Diameter (pEGFP-N1; [BFDMA] 20 μM): ca. 610 nm | Intensity-Avg Diameter (pEGFP-N1; [12]): 1163 (±150) nm | Number-Avg Diameter (pEGFP-N1; [12]): 611 (±183) nm | Intensity-Avg Diameter (pEGFP-N1; [13]): 1497 (±340) nm | Number-Avg Diameter (pEGFP-N1; [13]): 1254 (±512) nm

C[N+](C)(CCCCCCCCCCC[c-]1cccc1)CCCCCCCCCCC[c-]1cccc1.[Br-].[Fe+2].[Fe+2].c1cc[cH-]c1.c1cc[cH-]c1 [reduced BFDMA, bis(11-ferrocenylundecyl)dimethylammonium bromide]
EGFP expression (COS-7 cells [2]; 2 μM lipid, 4 h exposure in serum-free medium, 48 h): relatively low levels | EGFP expression (transfection) (COS-7 cells [2]; 10 μM and 20 μM lipid, 4 h exposure in serum-free medium, 48 h): increased significantly | EGFP expression (transfection) (COS-7 cells [2]; 40 μM lipid, 4 h exposure in serum-free medium, 48 h): significantly reduced | cell death by phase contrast microscopy (COS-7 cells [2]; concentrations above 40 μM): Significant cell death | cytotoxicity (COS-7 cells [7]; 2 hours exposure, 2 μM to 10 μM): not cytotoxic | cytotoxicity (COS-7 cells [7]; 2 hours exposure, 20 μM): increases slightly | cytotoxicity (COS-7 cells [7]; 2 hours exposure, 40 μM and 60 μM): substantially cytotoxic | cytotoxicity (COS-7 cells [7]; 12 hours exposure, 6 μM to 10 μM, versus two or four hours): more cytotoxic | cytotoxicity (COS-7 cells [7]; 12 hours exposure, 20 μM): cytotoxic | cytotoxicity (COS-7 cells [7]; two or four hours exposure, 20 μM): not substantially cytotoxic | luciferase expression (normalized to total cell protein) (COS-7 cells [3]; 2 hours exposure, serum-free, 2 μM and 40 μM and 60 μM): low | luciferase expression (normalized to total cell protein) (COS-7 cells [3]; 2 hours exposure, serum-free, 4 μM to 20 μM): significantly higher | luciferase expression versus Lipofectamine 2000 and TransIT-LT1 (COS-7 cells [3]; four and twelve hours exposure, serum-free, 6 μM to 20 μM): comparable to or measured to be in excess of | concentrations at which maximum gene expression is observed (COS-7 cells [3]; four hours exposure): 20 µM and 40 µM | hydrodynamic size of aggregates w/ DNA (pGFP; time 0 min, listed as red): 689.7 nm | hydrodynamic size of aggregates w/ DNA (pGFP; time 120 min, listed as red): 2613.9 nm | hydrodynamic size of aggregates w/ DNA (pGFP; time 240 min, listed as red): 2995.5 nm | hydrodynamic size of aggregates w/o DNA ([8]; time 0 min, listed as red): 472.8 nm | hydrodynamic size of aggregates w/o DNA ([8]; time 120 min, listed as red): 1214 nm | hydrodynamic size of aggregates w/o DNA ([8]; time 240 min, listed as red): 1090.3 nm | Number-Avg Diameter (pEGFP-N1; [BFDMA] 2 μM, 600 ng DNA, listed as Red. BFDMA): 158 (±64) nm | Intensity-Avg Diameter (pEGFP-N1; [BFDMA] 2 μM, listed as Red. BFDMA): 369 (±74) nm | Intensity-Avg Diameter (pEGFP-N1; [14]): 603 (±262) nm | Number-Avg Diameter (pEGFP-N1; [14]): 231 (±88) nm | Intensity-Avg Diameter (pEGFP-N1; [15]): 951 (±504) nm | Number-Avg Diameter (pEGFP-N1; [15]): 297 (±126) nm | Intensity-Avg Diameter (pEGFP-N1; [16]): 1118 (±426) nm | Number-Avg Diameter (pEGFP-N1; [16]): 219 (±126) nm | Intensity-Avg Diameter (pEGFP-N1; [17]): 2766 (±725) nm | Number-Avg Diameter (pEGFP-N1; [17]): 1490 (±750) nm | Intensity-Avg Diameter (pEGFP-N1; [18]): 4777 (±1350) nm | Number-Avg Diameter (pEGFP-N1; [18]): 1921 (±1220) nm

Reference: patent US9592300B2, “Methods of using redox-active surfactants to control polymer interactions” (WISCONSIN ALUMNI RESEARCH FOUNDATION, priority 2005, dated 2017)
